A short description of experiment [1]: DPPH free radical scavenging activity assay. The note with it: DPPH 150 μM, 30 min, 517 nm; read-out: DPPH/IC50 (μM) ± SD. How it is done:
The anti-oxidation effect on DPPH radical was determined by a slightly modified version of a previously described DPPH radical scavenging assay. Reaction mixtures consisted of 100 μl of DPPH (150 μM), 20 μl of increasing concentration of test compounds and the volume was adjusted to 200 μl in each well with DMSO. The assay solution was then incubated at room temperature (25 °C) for 30 min in the dark. After the incubation, absorbance at 517 nm was measured by using UV-2600 spectrophotometer. The experiments were undertaken in triplicate. DMSO was used as a control. Ascorbic acid was used as antioxidant standard for comparison of the activity. The calculation of DPPH radical scavenging activity was followed by this formula: DPPH radical scavenging activity %=absorbance of standard−absorbance of sample/Absorbance of standard×100

The nature of experiment [2]: ABTS radical cation scavenging activity assay. Particulars: 734 nm; read-out: ABTS+/IC50 (μM) ± SD. How it is done:
ABTS free radical scavenging activity was performed according to the procedure described by Zhang et al.[40] Test solution of ABTS decolourisation assay was prepared by mixing 2.45 mM potassium persulfate and 7 mM ABTS at 8:12 volume/volume ratio. The working solution was kept in the dark at room temperature for 12–18 h. Before ABTS radical scavenging test, the ABTS test solution was diluted with DMSO to absorbance of 0.7 (±0.02) at 734 nm. One millilitre of diluted ABTS test solution was added to 10 μl of DMSO or test sample. After initial mixing, the working solution was kept in the dark at room temperature for 2–6 min, and the absorbance was measured at 734 nm. This test was carried out in triplicate. DMSO was used as a control. Ascorbic acid was used as antioxidant standard for comparison of the activity. The absorbance of test samples was calculated by the following formula. ABTS scavenging ability %=absorbance of standard−absorbance of sample/absorbance of standard×100.

The next experiment has as its target mushroom tyrosinase (Agaricus bisporus, UniProt C7FF04). Briefly: In vitro mushroom tyrosinase inhibition (L-DOPA substrate). Type of experiment: biochemical. Particulars: 475 nm, read-out: IC50 (μM) ± SD, inhibitory tyrosinase activity. On the procedure:
The mushroom tyrosinase inhibitory activity was determined according to previous described method. Briefly, 168 μl of phosphate buffer (0.1 M, pH 6.8), 10 μl of mushroom tyrosinase (0.5 mg/ml, Sigma Chemical, St. Louis, MO) and 2 μl of the inhibitor solution were placed in the wells of a 96-well micro plate. After pre-incubation for 20 min at 37 °C, 20 μl of 2.0 mg/ml L-DOPA (3,4-dihydroxyphenylalanine, Sigma Chemical, St. Louis, MO) was added and the enzyme activity was measured at 475 nm every 60 s for 180 s in a Microplate Reader (Bio-Rad Laboratories, Inc., Hercules, CA). Kojic acid and phosphate buffer were respectively used as positive and negative control. The extent of inhibition by the test compounds was expressed as the percentage of concentration necessary to achieve 50% inhibition (IC50). The percentage of inhibition was calculated as follows: inhibitory rate (%) = [Ac − At)/Ac] × 100. Ac is the absorbance of the negative control and At is the absorbance of the test compound. Each concentration was analysed in three independent experiments run in triplicate. The IC50 values were determined by the data analysis software GraphPad Prism 8 (La Jolla, CA).
The tyrosinase inhibition measurements of compounds 6a–6x were carried out using L-DOPA as substrate. Kojic acid was selected as a positive control compound. […]. […] Moreover, inhibitory activity of compound with hydroxyl group at papa position is better than the inhibitory activity of compound with hydroxyl group at meta position, and inhibitory activity of compound with hydroxyl group at meta position is better than the inhibitory activity of compound with hydroxyl group at ortho position. […]. […] In addition, with the increase of atomic radius, the inhibitory activity gradually decreases. (3) The inhibitory activity of alkoxy substituted compound is better than that of alkyl substituted compound. (4) Comparing the tyrosinase inhibitory activity of compounds with halogen atom (6b–6d, 6q–6s) and compounds with methyl or methoxy (6e–6f, 6t–6u), when the hydrogen (R^2) was replaced by the methyl (R^2), the inhibitory activity was decreased.

Chain of mushroom tyrosinase (C7FF04 1-392): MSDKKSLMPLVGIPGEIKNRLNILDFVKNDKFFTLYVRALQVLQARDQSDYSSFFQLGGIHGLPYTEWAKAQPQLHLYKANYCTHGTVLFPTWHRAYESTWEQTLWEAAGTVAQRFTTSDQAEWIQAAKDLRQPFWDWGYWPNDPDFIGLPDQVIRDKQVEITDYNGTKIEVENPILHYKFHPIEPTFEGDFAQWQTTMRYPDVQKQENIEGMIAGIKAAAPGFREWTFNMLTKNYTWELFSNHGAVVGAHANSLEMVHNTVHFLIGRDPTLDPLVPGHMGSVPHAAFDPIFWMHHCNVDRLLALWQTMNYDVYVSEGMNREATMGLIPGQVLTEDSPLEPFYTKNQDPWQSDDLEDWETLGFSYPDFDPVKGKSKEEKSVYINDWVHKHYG

Consider “2-(1-(4-((1-((5-Hydroxy-4-oxo-4H-pyran-2-yl)methyl)-1H-1,2,3-triazol-5-yl)methoxy)-3-methylphenyl)ethylidene)hydrazinecarbothioamide [Compound 6x]”, for which the IC50 in experiment [1] was determined as 159.2 ± 0.061 µM; in experiment [2] it was 19.94 ± 0.081 µM; on mushroom tyrosinase, 2.35 ± 0.021 µM.

On to “2-(4-((1-((5-Hydroxy-4-oxo-4H-pyran-2-yl)methyl)-1H-1,2,3-triazol-5-yl)methoxy)-3-methylbenzylidene)hydrazinecarbothioamide [Compound 6o]”, for which the IC50 came to 193.9 ± 0.022 µM in experiment [1], 17.95 ± 0.048 µM in experiment [2] and 12.38 ± 0.014 µM on mushroom tyrosinase.

On to “2-(4-((1-((5-Hydroxy-4-oxo-4H-pyran-2-yl)methyl)-1H-1,2,3-triazol-5-yl)methoxy)-3-methoxybenzylidene)hydrazinecarbothioamide [Compound 6n]”, for which the figures for the IC50 (in experiment [1]; in experiment [2]; on mushroom tyrosinase) were 176.2 ± 0.061 µM, 44.4 ± 0.068 µM and 8.4 ± 0.009 µM, respectively.

Values taken from publication PMC11983575, “Study on the synthesis and biological activity of kojic acid triazol thiosemicarbazide Schiff base derivatives” (Journal of Enzyme Inhibition and Medicinal Chemistry, 2025).
